For data set [1] the following is noted: human, in vivo.
Description: (§1) In an ongoing Phase II study of CNP therapy in children, a group of patients age 3 to 6 months (cohort 3) were administered CNP (BMN111) at a dose of 30 μg/kg daily subcutaneously, and changes in annualized growth volume, changes in height, and skull morphology were measured.
Data set [2] is described as follows: clinical. Conditions: human, in vivo. An excerpt: Studies from rodent pups, growing lambs and children support the view that circulating levels of CNP products in plasma (CNP and NTproCNP) are sourced largely from growth plate or closely related tissues (Espiner 2018, supra). Measurement of any possible impact on endogenous proCNP production of administered CNP 1-37 Pro Gly (which strongly cross-reacts with CNP but not NTproCNP assay) is therefore only feasible using plasma concentrations of NTproCNP adjusted for age and sex (SDS). […] It is instructive to compare these dynamic changes in CNP with those found in short non Ach children of similar age starting daily doses of Human Growth Hormone (HGH) (Olney, et al. Clin Endocrinol (Oxf) 85:561-568, 2016). In that setting, similar inflections in AGV were associated with increase in NTproCNP (mean 11 pmol/L, delta 22% at day 21) in contrast to the concurrent fall of NTproCNP (approximately 6 pmol/L, range 3-11 pmol/L, delta-12%) at Day 29 during 15-30 μg/kg/d Vosoritide treatment in Cohorts 3 and 4. […] These kinetic responses could relate to the estimated times (approximately 20-22 days) (Sansone et al., J Pediatr Orthop 29:61-67, 2009) for recruited chondrocytes to traverse the respective zones of the expanding growth plate and populate the primary spongiosa.
This temporal constraint may relate to the early growth spurt observed in many of the children studied. […]

Data set [3] deals with children aged 3 to 60 months. Further details: species or system human. Conditions: in vivo, sc. An excerpt: See also PCT Application No. PCT/US22/73605.
The nature of data set [4]: clinical. Conditions: human, in vivo; for Tmax: Median [range] Tmax; for Cmax: Mean (SD) Cmax.
Description: as §1

With `CC[C@H](C)[C@@H]1NC(=O)[C@H](CCCNC(=N)N)NC(=O)[C@H](CC(=O)O)NC(=O)[C@H](CC(C)C)NC(=O)[C@H](CCCCN)NC(=O)[C@H](CC(C)C)NC(=O)CNC(=O)[C@H](Cc2ccccc2)NC(=O)[C@@H](NC(=O)CNC(=O)[C@H](CCCCN)NC(=O)[C@H](CO)NC(=O)[C@H](CC(C)C)NC(=O)CNC(=O)[C@H](CCCCN)NC(=O)[C@H](CCCCN)NC(=O)[C@H](CC(N)=O)NC(=O)[C@H](C)NC(=O)CNC(=O)[C@H](CCCCN)NC(=O)[C@H](Cc2ccc(O)cc2)NC(=O)[C@H](CCCCN)NC(=O)[C@H](CCCNC(=N)N)NC(=O)[C@H](C)NC(=O)[C@H](CC(N)=O)NC(=O)[C@@H]2CCCN2C(=O)[C@H](Cc2c[nH]cn2)NC(=O)[C@H](CCC(=O)O)NC(=O)[C@H](CCC(N)=O)NC(=O)CNC(=O)[C@@H]2CCCN2)CSSC[C@@H](C(=O)O)NC(=O)CNC(=O)[C@H](CC(C)C)NC(=O)CNC(=O)[C@H](CO)NC(=O)[C@H](CCSC)NC(=O)[C@H](CO)NC(=O)CNC1=O` [Vosoritide], the “Median [range] Tmax” value in data set [1] (15 ug/kg) is 15.0 [7.0, 31.0] min. In data set [1] (30 ug/kg), the “Mean (SD) Cmax” value is given as 13,500 (6770) pg/mL. For the same molecule, the “Mean (SD) AUC0-t” value in data set [1] (sc, 30 ug/kg) is listed as 323,000 (129,000) pg-min/mL. Moreover, the half-life in the data set “clinical [2]” amounted to 28 min; in “clinical [4]” (sc, 15 ug/kg, Mean (SD) t1/2), 21.7 min. For the same molecule, the overall adverse-event profile result in data set [3] was “generally mild”. Besides, the time of peak concentration (Tmax) was 15 min in the data set “clinical [4]” (15 ug/kg); 14 min in the data set “clinical [4]” (30 ug/kg); 15 min in the data set “clinical [4]” (sc, 15 ug/kg). In addition, the peak concentration (Cmax) in the data set “clinical [4]” (30 ug/kg) amounted to 10.1 ng/mL; in “clinical [4]” (sc, 15 ug/kg) it was 4.43 ng/mL; in “clinical [4]” (sc, 30 ug/kg) it was 14.5 ng/mL. Also, the exposure AUC(0-t) in “clinical [4]” (sc, 30 ug/kg, Mean (SD) AUC0-t) was 9.12 ng·h/mL.

As usually defined, the half-life is the time in which the quantity being followed falls by half. Low readings indicate fast loss, high ones slow loss. By Tmax is commonly meant the time from dosing to the highest level. A word on the Cmax: it is the highest concentration seen after dosing. For orientation: AUC(0-t) means exposure summed from dosing to a finite time, without extrapolation to infinity.

Values taken from patent US20250032576A1, “CNP Therapy” (BIOMARIN PHARMACEUTICAL INC., priority 2021, published 2025).
